Reference: the supplement of paper PMC10307832

How the values were obtained:
Test in all cases: relative viability (nuclei count vs DMSO), 5 days (fraction); higher = more cells survive
[1] = tested on: HARA
In short: (§1)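 Relative viability divides the nuclei count in treated wells by that in vehicle wells. Lung cancer cell lines were seeded in 1536-well plates, dosed by pin tool the next day, and fixed and stained after 5 days in one step with final 0.05% Triton X-100, 1% formaldehyde and 1 ug/ml Hoechst. Dosing was a single drug or a fixed anchor-drug dose plus five library-drug doses (not always all listed) in √10 steps, and values are medians of duplicate plates imaged at 4×.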

[2] = tested on: EMC-BAC-2
In short: as §1

[3] = tested on: HCC-827
In short: as §1

[4] = tested on: CAL-12T
In short: as §1

[5] = tested on: HCC-366
In short: as §1

[6] = tested on: NCI-H522
In short: as §1

[7] = tested on: NCI-H2228
In short: as §1

[8] = tested on: HOP-62
In short: as §1

[9] = tested on: NCI-H1437
In short: as §1

[10] = tested on: NCI-H727
In short: as §1

[11] = tested on: NCI-H1755
In short: as §1

[12] = tested on: NCI-H23
In short: as §1

[13] = tested on: SW 1573
In short: as §1

[14] = tested on: A-427
In short: as §1

[15] = tested on: NCI-H2009
In short: as §1

[16] = tested on: NCI-H1792
In short: as §1

[17] = tested on: SK-LU-1
In short: as §1

[18] = tested on: COR-L 105
In short: as §1

[19] = tested on: NCI-H460
In short: as §1

[20] = tested on: NCI-H1915
In short: as §1

[21] = tested on: LCLC-103H
In short: as §1

[22] = tested on: NCI-H1395
In short: as §1

SMILES: Cc1sc2c(c1C)C(c1ccc(Cl)cc1)=N[C@@H](CC(=O)OC(C)(C)C)c1nnc(C)n1-2 [JQ1] + COc1cccc2cc(-c3nc([C@H]4CC[C@H](C(=O)O)CC4)n4ncnc(N)c34)[nH]c12 [OSI-027] (partner 0.5 µM)
- relative viability ([1]; first compound 0.04 µM): 0.418
- relative viability ([1]; first compound 0.1265 µM): 0.341
- relative viability ([1]; first compound 0.4 µM): 0.282
- relative viability ([1]; first compound 1.265 µM): 0.11
- relative viability ([1]; first compound 4 µM): 0.141
- relative viability ([2]; first compound 0.04 µM): 0.405
- relative viability ([2]; first compound 0.1265 µM): 0.286
- relative viability ([2]; first compound 0.4 µM): 0.301
- relative viability ([2]; first compound 1.265 µM): 0.189
- relative viability ([2]; first compound 4 µM): 0.224
- relative viability ([3]; first compound 0.04 µM): 0.704
- relative viability ([3]; first compound 0.4 µM): 0.532
- relative viability ([3]; first compound 1.265 µM): 0.866
- relative viability ([3]; first compound 4 µM): 0.738
- relative viability ([4]; first compound 0.04 µM): 0.618
- relative viability ([4]; first compound 0.1265 µM): 0.586
- relative viability ([4]; first compound 0.4 µM): 0.32
- relative viability ([4]; first compound 1.265 µM): 0.192
- relative viability ([4]; first compound 4 µM): 0.173
- relative viability ([5]; first compound 0.04 µM): 0.958
- relative viability ([5]; first compound 0.4 µM): 0.783
- relative viability ([5]; first compound 1.265 µM): 0.336
- relative viability ([5]; first compound 4 µM): 0.31
- relative viability ([6]; first compound 0.04 µM): 0.657
- relative viability ([6]; first compound 0.1265 µM): 0.556
- relative viability ([6]; first compound 0.4 µM): 0.617
- relative viability ([6]; first compound 4 µM): 0.468
- relative viability ([7]; first compound 0.04 µM): 0.731
- relative viability ([7]; first compound 0.1265 µM): 0.657
- relative viability ([7]; first compound 0.4 µM): 0.466
- relative viability ([7]; first compound 1.265 µM): 0.257
- relative viability ([7]; first compound 4 µM): 0.296
- relative viability ([8]; first compound 0.04 µM): 0.826
- relative viability ([8]; first compound 0.1265 µM): 0.613
- relative viability ([8]; first compound 0.4 µM): 0.45
- relative viability ([8]; first compound 1.265 µM): 0.189
- relative viability ([8]; first compound 4 µM): 0.149
- relative viability ([9]; first compound 0.04 µM): 0.871
- relative viability ([9]; first compound 0.1265 µM): 0.809
- relative viability ([9]; first compound 0.4 µM): 0.599
- relative viability ([9]; first compound 1.265 µM): 0.36
- relative viability ([9]; first compound 4 µM): 0.319
- relative viability ([10]; first compound 0.04 µM): 0.576
- relative viability ([10]; first compound 0.1265 µM): 0.582
- relative viability ([10]; first compound 0.4 µM): 0.414
- relative viability ([10]; first compound 1.265 µM): 0.375
- relative viability ([10]; first compound 4 µM): 0.406
- relative viability ([11]; first compound 0.04 µM): 0.758
- relative viability ([11]; first compound 0.1265 µM): 0.68
- relative viability ([11]; first compound 0.4 µM): 0.668
- relative viability ([11]; first compound 1.265 µM): 0.527
- relative viability ([11]; first compound 4 µM): 0.39
- relative viability ([12]; first compound 0.04 µM): 0.586
- relative viability ([12]; first compound 0.1265 µM): 0.583
- relative viability ([12]; first compound 0.4 µM): 0.394
- relative viability ([12]; first compound 1.265 µM): 0.198
- relative viability ([12]; first compound 4 µM): 0.204
- relative viability ([13]; first compound 0.04 µM): 0.511
- relative viability ([13]; first compound 0.1265 µM): 0.475
- relative viability ([13]; first compound 0.4 µM): 0.371
- relative viability ([13]; first compound 1.265 µM): 0.229
- relative viability ([13]; first compound 4 µM): 0.233
- relative viability ([14]; first compound 0.04 µM): 0.468
- relative viability ([14]; first compound 0.1265 µM): 0.45
- relative viability ([14]; first compound 0.4 µM): 0.458
- relative viability ([14]; first compound 1.265 µM): 0.3
- relative viability ([14]; first compound 4 µM): 0.293
- relative viability ([15]; first compound 0.04 µM): 0.558
- relative viability ([15]; first compound 0.1265 µM): 0.471
- relative viability ([15]; first compound 0.4 µM): 0.318
- relative viability ([15]; first compound 1.265 µM): 0.185
- relative viability ([15]; first compound 4 µM): 0.179
- relative viability ([16]; first compound 0.04 µM): 0.666
- relative viability ([16]; first compound 0.4 µM): 0.82
- relative viability ([16]; first compound 1.265 µM): 0.497
- relative viability ([16]; first compound 4 µM): 0.57
- relative viability ([17]; first compound 0.04 µM): 0.381
- relative viability ([17]; first compound 0.1265 µM): 0.333
- relative viability ([17]; first compound 0.4 µM): 0.253
- relative viability ([17]; first compound 1.265 µM): 0.158
- relative viability ([17]; first compound 4 µM): 0.143
- relative viability ([18]; first compound 0.04 µM): 0.608
- relative viability ([18]; first compound 0.1265 µM): 0.336
- relative viability ([18]; first compound 0.4 µM): 0.297
- relative viability ([18]; first compound 1.265 µM): 0.207
- relative viability ([18]; first compound 4 µM): 0.248
- relative viability ([19]; first compound 0.04 µM): 0.594
- relative viability ([19]; first compound 0.1265 µM): 0.366
- relative viability ([19]; first compound 0.4 µM): 0.259
- relative viability ([19]; first compound 1.265 µM): 0.0873
- relative viability ([19]; first compound 4 µM): 0.0909
- relative viability ([20]; first compound 0.04 µM): 0.609
- relative viability ([20]; first compound 0.1265 µM): 0.602
- relative viability ([20]; first compound 0.4 µM): 0.59
- relative viability ([20]; first compound 1.265 µM): 0.263
- relative viability ([20]; first compound 4 µM): 0.217
- relative viability ([21]; first compound 0.04 µM): 0.443
- relative viability ([21]; first compound 0.1265 µM): 0.448
- relative viability ([21]; first compound 0.4 µM): 0.367
- relative viability ([21]; first compound 1.265 µM): 0.357
- relative viability ([21]; first compound 4 µM): 0.29
- relative viability ([22]; first compound 0.04 µM): 0.626
- relative viability ([22]; first compound 0.1265 µM): 0.489
- relative viability ([22]; first compound 0.4 µM): 0.605
- relative viability ([22]; first compound 1.265 µM): 0.488
- relative viability ([22]; first compound 4 µM): 0.477
